Like-named read-outs stand apart in the source and are kept apart here.
Legend:
Type in all cases: in vivo
[1] = system: barnyardgrass (Echinochloa oryzicola vasing); assay: Growth inhibition of barnyardgrass in paddy soil pots, application under submerged condition, visual rating (observed value) and Colby expected value; conditions: Echinochloa oryzicola, soil, read-out: Growth inhibition rate (%) Observed
How it was run: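 Barnyardgrass (Echinochloa oryzicola vasing) seeds were sown in paddy field soil in 1/10,000 are pots and kept irrigated at a water depth of 3.5 cm. Wettable powders of the active ingredients were diluted with water and applied under submerged conditions at the prescribed amounts. Growth was visually scored from 0% (as untreated) to 100% (complete kill), and expected values were calculated with Colby's formula.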

[2] = system: flatsedge (Cyperus serotinus); assay: Growth inhibition of flatsedge (planted tubers) in paddy soil pots, application under submerged condition, visual rating and Colby expected value; conditions: Cyperus serotinus, soil, 720 h, 2.5 to 3.0 leaf stage, 30 days after application, Test Examples 46-60, read-out: Growth inhibition rate (%) Observed
Text: (§1) When the herbicidal activity in a case where two active ingredients are combined, is larger than the simple sum of the respective herbicidal activities of the two active ingredients (the expected activity), it is called a synergistic effect. The activity expected by the combination of two active ingredients can be calculated as follows (Colby S. R., “Weed”, vol. 15, p. 20-22, 1967). E=p+q−(p×q÷100) where p: growth inhibition rate when treated with x (g/a) of herbicide X,
(§2) q: growth inhibition rate when treated with y (g/a) of herbicide Y,
(§3) E: growth inhibition rate expected when treated with x (g/a) of herbicide X and y (g/a) of herbicide Y.
(§4) Namely, when the actual growth inhibition rate (observed value) is larger than the growth inhibition rate by the above calculation (expected value), the activity by the combination can be regarded as showing a synergistic effect.
(§5) Growth inhibition rate (%)=0% (equivalent to the non-treated area) to 100% (complete kill)
(§6) Paddy field soil was put into a 1/10,000 are pot, and tubers of flatsedge (Cyperus serotinus) were planted and left to stand under an irrigated condition with a water depth of 3.5 cm. When flatsedge reached 2.8 to 3.2 leaf stage, wettable powders of compound A2 and compound (B1.2) were, respectively, diluted with water and applied under submerged condition so that the active ingredients became the prescribed amounts, respectively. The state of growth was visually observed 29 days after application, and evaluation and calculation were carried out in the same manner as in the above Test Example 1.
Paddy field soil was put into a 1/3,000 are pot, and tubers of flatsedge (Cyperus serotinus) were planted and left to stand under an irrigated condition with a water depth of 3.5 cm. When flatsedge reached 4 leaf stage, a wettable powder of compound A2 and an emulsifiable concentrate of compound C4 were, respectively, diluted with water and applied under submerged condition so that the active ingredients became the prescribed amounts, respectively. The state of growth was visually observed 21 days after application, and the growth inhibition rate (%) evaluated in the same manner as in the above Test Example 1 (observed value) and the growth inhibition rate (%) calculated by the above-mentioned Colby method (expected value) are shown in Table 32.
as §6, with “2.5” for “2.8”, “3.0” for “3.2”, “A2, compound (D2.3)” for “A2”, “(B4.1)” for “(B1.2)”, “30” for “29”, “evaluated” for “evaluation and calculation were carried out”
as §6, with “2.5” for “2.8”, “3.0” for “3.2”, “A2, compound (D2.3)” for “A2”, “(B6.1)” for “(B1.2)”, “30” for “29”, “evaluated” for “evaluation and calculation were carried out”
Paddy field soil was put into a 1/10,000 are pot, and tubers of flatsedge (Cyperus serotinus) were planted and left to stand under an irrigated condition with a water depth of 3.5 cm. When flatsedge reached 2.5 to 3.0 leaf stage, wettable powders of compound A2, compound (D2.3) and compound (B8.1) were, respectively, diluted with water and applied under submerged condition so that the active ingredients became the prescribed amounts, respectively. […]

[3] = system: rice (Oryza sativa var. Nihonbare); assay: Growth inhibition (phytotoxicity) of transplanted rice by compound A2 with or without compound D, application under submerged condition, visual rating 7 and 21 days after application; conditions: Compound A2 60 g/ha + Compound D 600 g/ha, applied 5 days after implantation; for Growth inhibition rate (%) (average) 7 days: 7 days after application; for Growth inhibition rate (%) (average) 21 days: 21 days after application
Text: as §5
Paddy field soil was put into a 1/500,000 hectare pot, harrowed and irrigated with a depth of 3 cm. On the next day, rice (Oryza sativa var. Nihonbare) at 2 leaf stage was implanted with a depth of 3 cm. A wettable powder of compound A2 and a wettable powder of compound D were, respectively, diluted with water and applied under submerged condition 5 days after implantation so that the active ingredients became the prescribed amounts, respectively. The state of growth of rice was visually observed 7 days and 21 days after application, and the growth inhibition rate (%) was evaluated in the same is manner as in the above Test Example 1.

[4] = system: Japanese bulrush (Scirpus juncoides); assay: Growth inhibition of Japanese bulrush in paddy soil pots, application under submerged condition, visual rating and Colby expected value; conditions: Schoenoplectiella juncoides, soil, 456 h, 3 leaf stage, 19 days after application, Test Example 37, read-out: Growth inhibition rate (%) Observed
Text: as §1, §2, §3, §4, §5
(§7) Paddy field soil was put into a 1/10,000 are pot, and seeds of Japanese bulrush (Scirpus juncoides) were sown and left to stand under an irrigated condition with a water depth of 3.5 cm. When Japanese bulrush reached 2.3 to 2.6 leaf stage, a wettable powder of compound A2 and granules of compound (B7.1) were, respectively, diluted with water and applied under submerged condition so that the active ingredients became the prescribed amounts, respectively. The state of growth was visually observed 10 days after application, and evaluation and calculation were carried out in the same manner as in the above Test Example 1.
as §7, with “an emulsifiable concentrate” for “granules”, “(B3.1)” for “(B7.1)”
(§8) Paddy field soil was put into a 1/10,000 are pot, and seeds of Japanese bulrush (Scirpus juncoides) were sown and left to stand under an irrigated condition with a water depth of 3.5 cm. When Japanese bulrush reached 2 leaf stage, wettable powders of compound A2, C2 and C4 and granules of compound C6 were, respectively, diluted with water and applied under submerged condition so that the active ingredients became the prescribed amounts, respectively.
Paddy field soil was put into a 1/10,000 are pot, and seeds of Japanese bulrush (Scirpus juncoides) were sown and left to stand under an irrigated condition with a water depth of 3.5 cm. When Japanese bulrush reached 2 leaf stage, wettable powders of compound A2, C2 and C4 and granules of compound C6 were, respectively, diluted with water and applied under submerged condition so that the active ingredients became the prescribed amounts, respectively. The state of growth was visually observed 19 days after application, and the growth inhibition rate (%) evaluated in the same manner as in the above Test Example 1 (observed value) and the growth inhibition rate (%) calculated by the above-mentioned Colby method (expected value) are shown in Tables 36, 37 and 38.
as §8, with “3” for “2”, “A2” for “A2, C2”, “and” for “and C4 and granules of”, “(D2.2)” for “C6”, “respectively. […]” for “respectively.”

[5] = system: barnyardgrass (Echinochloa oryzicola vasing); assay: Growth inhibition of barnyardgrass in paddy soil pots, foliar application with a small sprayer, visual rating and Colby expected value; conditions: Echinochloa oryzicola, 504 h, 3.0 to 3.3 leaf stage, 21 days after application, read-out: Growth inhibition rate (%) Observed
Text: as §1, §2, §3, §4, §5
Paddy field soil was put into a 1/10,000 are pot, and seeds of barnyardgrass (Echinochloa oryzicola vasing) were sown and left to stand under an irrigated condition with a water depth of 3.5 cm. When barnyardgrass reached 3.0 to 3.3 leaf stage, a wettable powder of compound A2 and a water-based suspension of compound (B11.1) were, respectively, diluted with water in an amount of 1,000 liter/ha, followed by foliar application with a small sprayer. The state of growth was visually observed 21 days after application, and evaluation and calculation were carried out in the same manner as in the above Test Example 1.

COc1cccc(N(C)C(=S)Oc2cccc(C(C)(C)C)c2)n1 [Compound (D2.3), O-3-tert-butylphenyl 6-methoxy-2-pyridyl(methyl)thiocarbamate]
inhibition at 188 g/ha ([1]; 504 h, 1.88 g/a, 2.8 to 3.2 leaf stage, 21 days after application, Test Examples 39-43): 0%
inhibition at 375 g/ha ([1]; 504 h, 3.75 g/a, 2.8 to 3.2 leaf stage, 21 days after application, Test Examples 39-43): 0%
inhibition at 188 g/ha ([1]; 528 h, 188 g/ha, 3 leaf stage, 22 days after application, Test Example 38): 3%
inhibition at 375 g/ha ([1]; 528 h, 375 g/ha, 3 leaf stage, 22 days after application, Test Example 38): 7%
inhibition at 600 g/ha ([2]; 6 g/a): 20%
Growth inhibition rate (%) (average) 7 days [3]: 3%
Growth inhibition rate (%) (average) 21 days [3]: 5%

CCSC(=O)N1CCCCCC1 [Compound (D2.2), S-ethyl azepane-1-carbothioate]
inhibition at 900 g/ha ([4]; 900 g/ha): 60%
inhibition at 1800 g/ha ([4]; 1,800 g/ha): 60%
Growth inhibition rate (%) (average) 7 days [3]: 7%
Growth inhibition rate (%) (average) 21 days [3]: 17%

COc1cnc(OC)n2nc(NS(=O)(=O)c3c(OCC(F)F)cccc3C(F)(F)F)nc12 [Compound (B11.1), penoxsulam]
inhibition at 4.7 g/ha ([5]; 0.047 g/a): 10%
inhibition at 9.4 g/ha ([5]; 0.094 g/a): 47%
inhibition at 18.8 g/ha ([5]; 0.188 g/a): 80%

Cc1ccc(NC(=O)NC(C)(C)c2ccccc2)cc1 [Compound (D1.1), 1-(1-methyl-1-phenylethyl)-3-p-tolylurea]
inhibition at 563 g/ha ([1]; 528 h, 563 g/ha, 3 leaf stage, 22 days after application, Test Example 36): 0%
inhibition at 1125 g/ha ([1]; 528 h, 1,125 g/ha, 3 leaf stage, 22 days after application, Test Example 36): 10%
inhibition at 1500 g/ha ([2]; 15 g/a): 20%
Growth inhibition rate (%) (average) 7 days [3]: 2%
Growth inhibition rate (%) (average) 21 days [3]: 10%

CC(C)(SC(=O)N1CCCCC1)c1ccccc1 [(D2.1), S-1-methyl-1-phenylethyl piperidine-1-carbothioate]
Growth inhibition rate (%) (average) 7 days [3]: 5%
Growth inhibition rate (%) (average) 21 days [3]: 10%

Reference: patent US20070232492A1, “Herbicidal Composition” (Ishihara Sangyo Kaisha, LTD., priority 2004, published 2007)
